The structures appear in SMILES notation. Some results are limits rather than exact numbers.

32 compounds from ChEMBL document CHEMBL1138343 (J Med Chem, 2007) can be followed below.

Assay [1] deals with T1, Glucocorticoid receptor (Homo sapiens, UniProt P04150).
T1 sequence (P04150 whole entry): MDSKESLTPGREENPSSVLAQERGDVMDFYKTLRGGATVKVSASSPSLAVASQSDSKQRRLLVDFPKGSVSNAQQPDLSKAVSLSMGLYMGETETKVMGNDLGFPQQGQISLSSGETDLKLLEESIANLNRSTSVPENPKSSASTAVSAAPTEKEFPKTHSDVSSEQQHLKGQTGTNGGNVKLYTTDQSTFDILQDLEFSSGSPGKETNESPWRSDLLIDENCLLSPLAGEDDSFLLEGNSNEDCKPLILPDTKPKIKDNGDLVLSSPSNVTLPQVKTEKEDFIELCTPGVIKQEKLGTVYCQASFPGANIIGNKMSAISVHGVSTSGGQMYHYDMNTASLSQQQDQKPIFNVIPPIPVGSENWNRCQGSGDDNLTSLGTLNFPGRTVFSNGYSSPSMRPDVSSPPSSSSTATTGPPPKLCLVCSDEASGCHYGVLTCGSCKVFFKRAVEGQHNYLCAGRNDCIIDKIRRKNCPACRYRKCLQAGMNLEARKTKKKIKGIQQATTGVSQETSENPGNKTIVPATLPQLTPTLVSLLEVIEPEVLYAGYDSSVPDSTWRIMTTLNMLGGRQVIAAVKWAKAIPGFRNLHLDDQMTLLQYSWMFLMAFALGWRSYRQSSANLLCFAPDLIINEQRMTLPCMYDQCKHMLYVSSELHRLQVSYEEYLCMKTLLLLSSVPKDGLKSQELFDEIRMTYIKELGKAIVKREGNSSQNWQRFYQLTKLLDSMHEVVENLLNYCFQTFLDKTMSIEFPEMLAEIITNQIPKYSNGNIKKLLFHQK
Description: Agonist activity at glucocorticoid receptor in human A549 cells by NF-kappaB transrepression assay

Assay [2] addresses T1, Glucocorticoid receptor. Description: Agonist activity at glucocorticoid receptor in human A549 cells by MMTV transactivation assay. In kind it is functional, cell-based. The settings on record: for pEC50: a549.
Assay [3] has as its target T1, Glucocorticoid receptor. This is another data set of the same source.
Assay [4] addresses T1, Glucocorticoid receptor. This is another data set of the same source.

Broadly, the IC50 is the concentration needed to halve the response being measured. A higher IC50 goes with weaker potency in that assay. Usually pEC50 stands for −log10 of the EC50, conventionally taken in molar units. Read a low pEC50 as a high EC50. Turning to `CC1(CC(O)(Cn2ccc(=O)c3ccccc32)C(F)(F)F)CCCc2ccccc21` (stereo in doubt; 17D1), the half-maximal inhibitory concentration (IC50) was 49 nM against Glucocorticoid receptor [1], 14.1 nM against Glucocorticoid receptor [3] and 224 nM against Glucocorticoid receptor [4]. In addition, the pEC50 on Glucocorticoid receptor [2] was less than 6.

The EC50 is the concentration giving half of the maximal effect. In the case of `Cc1ccc2c(NCC(O)(CC3(C)CCCc4ccccc43)C(F)(F)F)cccc2n1` (stereo in doubt; 55D1E1), the IC50 on Glucocorticoid receptor [1] is 0.501 nM; on Glucocorticoid receptor [3], 5.01 nM; against Glucocorticoid receptor [4] it was 77.6 nM. This compound had an EC50 on Glucocorticoid receptor [2] of 9.55 nM.

As to `CCC1(CC(O)(Cc2cc(Cl)nc3ccccc23)C(F)(F)F)CCCc2ccccc21` (stereo not given), the IC50 was 30.2 nM at Glucocorticoid receptor [1] and 28.2 nM on Glucocorticoid receptor [3]. The same compound showed an EC50 on Glucocorticoid receptor [2] of 51.3 nM.

As for `Cc1noc(=O)c2ccc(NC(=O)C(O)(CC3(C4CCCC4)CCCc4ccccc43)C(F)(F)F)cc12` (stereo not given), the 50% inhibitory concentration (IC50) against Glucocorticoid receptor [1] is 2.04 nM; against Glucocorticoid receptor [3], 8.13 nM; against Glucocorticoid receptor [4], 53.7 nM. The compound also showed a 50% effective concentration (EC50) on Glucocorticoid receptor [2] of 17.8 nM.

Regarding `CCC1(CC(O)(Cc2[nH]c3ccccc3c2C#N)C(F)(F)F)CCCc2ccccc21` (stereo not given), the figures for the IC50 against Glucocorticoid receptor [1], against Glucocorticoid receptor [3] and against Glucocorticoid receptor [4] were 6.61 nM, 7.59 nM and 57.5 nM, respectively. The same compound gave an EC50 on Glucocorticoid receptor [2] greater than 1000 nM.

In the case of `CCC1(CC(O)(Cc2cc3ccccc3[nH]2)C(F)(F)F)CCCc2ccccc21` (stereo in doubt; 20D1E1), the IC50 at Glucocorticoid receptor [1] is 11.2 nM; at Glucocorticoid receptor [3], 14.1 nM; against Glucocorticoid receptor [4], 245 nM. In addition, the EC50 on Glucocorticoid receptor [2] was 61.7 nM.

As to `CCC1(CC(O)(CNc2cccc3ncccc23)C(F)(F)F)CCCc2ccccc21` (stereo not given), the results for the IC50 against Glucocorticoid receptor [1] and against Glucocorticoid receptor [3] were 12.3 nM and 11.2 nM, respectively. Moreover, at Glucocorticoid receptor [2], the EC50 is greater than 1000 nM.

With `CCC1(CC(O)(Cc2cc3ccncc3[nH]2)C(F)(F)F)CCCc2ccccc21` (stereo in doubt; 23D1), the half-inhibitory concentration (IC50) at Glucocorticoid receptor [1] was 20 nM; against Glucocorticoid receptor [3] it was 28.2 nM. In addition, the pEC50 at Glucocorticoid receptor [2] was less than 6.

`CC1(CC(O)(Cc2ccnc3ccccc23)C(F)(F)F)CCCc2ccccc21` (stereo in doubt; 41D2): the 50% inhibitory concentration (IC50) was greater than 10000 nM against Glucocorticoid receptor [1] and 24 nM against Glucocorticoid receptor [3]. This compound also showed an EC50 at Glucocorticoid receptor [2] greater than 10000 nM.

In the case of `CC1(CC(O)(CNc2cccc3cnccc23)C(F)(F)F)CCCc2ccccc21` (stereo in doubt; 54D1E2), the IC50 at Glucocorticoid receptor [1] is 1.17 nM; on Glucocorticoid receptor [3] it was 8.71 nM; on Glucocorticoid receptor [4] it was 102 nM. In addition, the EC50 at Glucocorticoid receptor [2] was 8.32 nM.

`CCC1(CC(O)(Cn2ccc(=O)c3ccccc32)C(F)(F)F)CCCc2ccccc21` (stereo not given): the IC50 on Glucocorticoid receptor [1] was 8.13 nM; against Glucocorticoid receptor [3] it was 14.1 nM. On Glucocorticoid receptor [2], this compound gave an EC50 greater than 1000 nM.

On to `CCC1(CC(O)(Cc2ccnc3ccccc23)C(F)(F)F)CCCc2ccccc21` (stereo in doubt; 33D1E1), for which the values for the IC50 on Glucocorticoid receptor [1] and on Glucocorticoid receptor [3] were 1.58 nM and 10 nM, respectively. The compound also had an EC50 at Glucocorticoid receptor [2] greater than 1000 nM.

On to `CCC1(CC(O)(CNc2cccc3cnccc23)C(F)(F)F)CCCc2ccccc21` (stereo in doubt; 49D1), for which the values for the IC50 at Glucocorticoid receptor [1] and at Glucocorticoid receptor [3] were 1.26 nM and 21.4 nM, respectively. At Glucocorticoid receptor [2], this compound had an EC50 of 32.4 nM.

For the compound `CCC1(CC(O)(Cc2ccnc3ccccc23)C(F)(F)F)CCCc2ccccc21` (stereo in doubt; 33D1), the IC50 is 4.9 nM at Glucocorticoid receptor [1], 15.1 nM against Glucocorticoid receptor [3] and 5010 nM against Glucocorticoid receptor [4]. A half-maximal response at Glucocorticoid receptor [2] (EC50) required 38 nM.

Turning to `CCC1(CC(O)(Cc2cc3ccncc3[nH]2)C(F)(F)F)CCCc2ccccc21` (stereo in doubt; 23D1E1), the IC50 is 8.91 nM at Glucocorticoid receptor [1], 8.91 nM against Glucocorticoid receptor [3] and 741 nM at Glucocorticoid receptor [4]. This compound showed an EC50 at Glucocorticoid receptor [2] greater than 1000 nM.

Turning to `CCC1(CC(O)(CNc2cccc3nc(C)ccc23)C(F)(F)F)CCCc2ccccc21` (stereo in doubt; 45D2), the IC50 is 49 nM on Glucocorticoid receptor [1] and 18.6 nM against Glucocorticoid receptor [3]. The response on Glucocorticoid receptor [2] was half-maximal at 162 nM (EC50).

`CCC1(CC(O)(CNc2cccc3nc(C)ccc23)C(F)(F)F)CCCc2ccccc21` (stereo in doubt; 45D1): the IC50 against Glucocorticoid receptor [1] was 2.4 nM; on Glucocorticoid receptor [3], 14.8 nM. The compound also showed an EC50 on Glucocorticoid receptor [2] of 13.2 nM.

`CCC1(CC(O)(CNc2cccc3cnccc23)C(F)(F)F)CCCc2ccccc21` (stereo in doubt; 49D1E2): the IC50 is 2.19 nM against Glucocorticoid receptor [1] and 10 nM against Glucocorticoid receptor [3]. Also, the EC50 on Glucocorticoid receptor [2] was greater than 1000 nM.

On to `CCC1(CC(O)(Cc2cc3ccccc3[nH]2)C(F)(F)F)CCCc2ccccc21` (stereo in doubt; 20D1E2), for which the IC50 on Glucocorticoid receptor [1] is greater than 1000 nM; on Glucocorticoid receptor [3], 1260 nM.

`CC1(CC(O)(Cc2cc3ccccc3[nH]2)C(F)(F)F)CCCc2ccccc21` (stereo not given): the results for the IC50 at Glucocorticoid receptor [1], on Glucocorticoid receptor [3] and on Glucocorticoid receptor [4] were 42.7 nM, 22.9 nM and 447 nM, respectively. Besides, the EC50 on Glucocorticoid receptor [2] is 41.7 nM.

For the compound `CCC1(CC(O)(Cc2cc3ccccc3[nH]2)C(F)(F)F)CCCc2ccccc21` (stereo in doubt; 20D1), the IC50 is 57.5 nM at Glucocorticoid receptor [1] and 31.6 nM against Glucocorticoid receptor [3]. Besides, at Glucocorticoid receptor [2], the EC50 was 64.6 nM.

Regarding `CC1(CC(O)(CNc2cccc3cnccc23)C(F)(F)F)CCCc2ccccc21` (stereo in doubt; 54D2E1), the values for the IC50 against Glucocorticoid receptor [1] and on Glucocorticoid receptor [3] were 15.1 nM and 74.1 nM, respectively. In addition, a half-maximal response at Glucocorticoid receptor [2] (EC50) required 257 nM.

Consider `CC1(CC(O)(Cn2ccc(=O)c3ccccc32)C(F)(F)F)CCCc2ccccc21` (stereo in doubt; 17D2), for which the figures for the IC50 against Glucocorticoid receptor [1], against Glucocorticoid receptor [3] and at Glucocorticoid receptor [4] were greater than 1000 nM, 34.7 nM and 708 nM, respectively. Also, the concentration giving a half-maximal response (EC50) at Glucocorticoid receptor [2] is greater than 1000 nM.

In the case of `Cc1ccc2c(NCC(O)(CC3(C)CCCc4ccccc43)C(F)(F)F)cccc2n1` (stereo in doubt; 55D2E1), the concentration for half-maximal inhibition (IC50) on Glucocorticoid receptor [1] and against Glucocorticoid receptor [3] was 9.12 nM each time. In addition, on Glucocorticoid receptor [2], it took 72.4 nM to reach a half-maximal effect (EC50).

For `CC1(CC(O)(CNc2cccc3ncccc23)C(F)(F)F)CCCc2ccccc21` (stereo not given), the 50% inhibitory concentration (IC50) on Glucocorticoid receptor [1] was 3.09 nM; against Glucocorticoid receptor [3], 6.31 nM. In addition, on Glucocorticoid receptor [2], the EC50 is 13.5 nM.

Turning to `CCC1(CC(O)(Cc2ccnc3ccccc23)C(F)(F)F)CCCc2ccccc21` (stereo in doubt; 33D2), the figures for the IC50 against Glucocorticoid receptor [1] and at Glucocorticoid receptor [3] were 275 nM and 33.1 nM, respectively. On Glucocorticoid receptor [2], this compound gave an EC50 greater than 10000 nM.

On to `CCC1(CC(O)(Cc2cc3c(C)cc(C#N)cc3[nH]2)C(F)(F)F)CCCc2ccccc21` (stereo in doubt; 21D1E2), for which the IC50 at Glucocorticoid receptor [1] was 3.8 nM; on Glucocorticoid receptor [3], 38.9 nM. In addition, at Glucocorticoid receptor [2], the EC50 was 51.3 nM.

Regarding `CCC1(CC(O)(Cc2cc3c(C)cc(C#N)cc3[nH]2)C(F)(F)F)CCCc2ccccc21` (stereo in doubt; 21D1), the IC50 was 7.24 nM against Glucocorticoid receptor [1] and 89.1 nM at Glucocorticoid receptor [3]. Further, at Glucocorticoid receptor [2], the EC50 was 58.9 nM.

`OC(Cc1ccnc2ccccc12)(CC1(C2CCCC2)CCCc2ccccc21)C(F)(F)F` (stereo not given): the IC50 against Glucocorticoid receptor [1] is 741 nM; against Glucocorticoid receptor [3], 148 nM. At Glucocorticoid receptor [2], the EC50 was greater than 10000 nM.

Regarding `CC1(CC(O)(Cc2ccnc3ccccc23)C(F)(F)F)CCCc2ccccc21` (stereo in doubt; 41D1), the IC50 at Glucocorticoid receptor [1] was 7.08 nM; at Glucocorticoid receptor [3], 15.1 nM. The EC50 on Glucocorticoid receptor [2] is 12.9 nM.

Turning to `CCC1(CC(O)(CNc2cccc3nc(C)ccc23)C(F)(F)F)CCCc2ccccc21` (stereo in doubt; 45D2E1), the 50% inhibitory concentration (IC50) is 45.7 nM against Glucocorticoid receptor [1] and 17.4 nM on Glucocorticoid receptor [3]. Moreover, on Glucocorticoid receptor [2], the midpoint of the response, the EC50, lay at 288 nM.

`CCC1(CC(O)(CNc2cccc3nc(C)ccc23)C(F)(F)F)CCCc2ccccc21` (stereo in doubt; 45D1E1): the IC50 against Glucocorticoid receptor [1] is 1.95 nM; on Glucocorticoid receptor [3] it was 14.8 nM. This compound also gave an EC50 on Glucocorticoid receptor [2] of 11 nM.
